For five molecules, solubility, solubility in water and solubility in acetone results are on record in US20220387325A1, “METHOD FOR MANUFACTURING DISPERSION OF ULTRAFINE PARTICLES OF POORLY SOLUBLE SUBSTANCE” (NANO CUBE JAPAN CO., LTD., priority 2019, published 2022).

Data set [1] is described as follows: physchem. The conditions noted are these: for solubility at 1 h: water, thermodynamic from solid. How it is done:
To 100 mL of the liquid thus obtained, 100 mL of water was added and acetone was distilled off by concentration under reduced pressure to obtain a water dispersion of ultrafine particles of coenzyme Q10.
To 100 mL of the liquid thus obtained, 100 mL of water was added and acetone was distilled off by concentration under reduced pressure to obtain a water dispersion of ultrafine particles of busulfan. […] The solubility was measured in the same manner as in Example 1, except that busulfan was used in place of coenzyme Q10.
To 100 mL of the liquid thus obtained, 100 mL of water was added and ethanol was distilled off by concentration under reduced pressure to obtain a water dispersion of ultrafine particles of docetaxel. […] The solubility was measured in the same manner as in Example 1, except that docetaxel was used in place of coenzyme Q10.
To 100 mL of the liquid thus obtained, 100 mL of water was added and ethanol was distilled off by concentration under reduced pressure to obtain a water dispersion of ultrafine particles of paclitaxel. […] The solubility was measured in the same manner as in Example 1, except that paclitaxel was used in place of coenzyme Q10.
To 100 mL of the liquid thus obtained, 100 mL of water was added and ethanol was distilled off by concentration under reduced pressure to obtain a water dispersion of ultrafine particles of azadirachtin.
To 100 mL of the liquid thus obtained, 100 mL of 1-butanol was added and water was distilled off by concentration under reduced pressure to obtain a 1-butanol dispersion of ultrafine particles of ascorbic acid.

The nature of data set [2]: Solubility in good solvent. The conditions noted are these: for solubility: organic solvent or mixture.
The nature of data set [3]: physchem. The conditions noted are these: 25 °C, organic solvent or mixture.

By solubility is commonly meant the dissolved amount per volume that the medium holds. `CC(=O)O[C@H]1C(=O)[C@@]2(C)[C@H]([C@H](OC(=O)c3ccccc3)[C@]3(O)C[C@H](OC(=O)[C@H](O)[C@@H](NC(=O)c4ccccc4)c4ccccc4)C(C)=C1C3(C)C)[C@]1(OC(C)=O)CO[C@@H]1C[C@@H]2O` [paclitaxel]: in the data set “physchem [1]” (25 °C), the solubility at 1 h was no more than 0.01 mg/mL. For the same molecule, in data set [2] (ethanol, 25 °C), the solubility is no less than 30 mg/mL.
In turn, `C/C=C(\C)C(=O)O[C@H]1C[C@@H](OC(C)=O)[C@@]2(C(=O)OC)CO[C@H]3[C@@H](O)[C@@](C)([C@]45O[C@@]4(C)[C@H]4C[C@@H]5O[C@@H]5OC=C[C@@]54O)[C@H]4[C@]1(CO[C@]4(O)C(=O)OC)[C@@H]32` [azadirachtin] showed a solubility at 1 h in the data set “physchem [1]” (20 °C) of no more than 0.1 mg/mL. Moreover, in the data set “physchem [3]”, the solubility was no less than 30 mg/mL.
Turning to `CS(=O)(=O)OCCCCOS(C)(=O)=O` [busulfan], in the data set “physchem [1]” (25 °C), the solubility at 1 h is no more than 0.01 mg/mL. Further, the solubility in data set [2] (acetone, 50 °C) was no less than 30 mg/mL.
The molecule `CC(=O)O[C@@]12CO[C@@H]1C[C@H](O)[C@@]1(C)C(=O)[C@H](O)C3=C(C)[C@@H](OC(=O)[C@H](O)[C@@H](NC(=O)OC(C)(C)C)c4ccccc4)C[C@@](O)([C@@H](OC(=O)c4ccccc4)[C@H]21)C3(C)C` [docetaxel] had a solubility at 1 h in “physchem [1]” (25 °C) of no more than 0.01 mg/mL. Further, the solubility in data set [2] (ethanol, 60 °C) is no less than 20 mg/mL.
`COC1=C(OC)C(=O)C(C/C=C(\C)CC/C=C(\C)CC/C=C(\C)CC/C=C(\C)CC/C=C(\C)CC/C=C(\C)CC/C=C(\C)CC/C=C(\C)CC/C=C(\C)CCC=C(C)C)=C(C)C1=O` [coenzyme Q10] registered a solubility in water in the data set “physchem [1]” of no more than 0.01 mg/mL. Besides, in data set [2] (acetone, 25° C.), the solubility in acetone is listed as no less than 30 mg/mL.
